Where “and” joins values, the source holds several entries; their conditions need not be identical. Equal values may be shown once. Blank lines part the entries; values can stand above or below the molecule they belong to. Calls of active or inactive are those of the source. How the source made its calls: active means viability on the fitted dose curve at most 10% of control; inactive means the rest.
Tested on: 947758-054-R-J2-PDC spheroid growth, percent test/control
Assay: Anticancer human tumor 947758-054-R-J2-PDC patient-derived colon adenocarcinoma cell line growth inhibition [CLK]
Settings: spheroids with HUVEC and MSC; for viability, T/C: stronger effect = lower value
Procedure, shortened: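 Patient-derived tumor cells grown as complex spheroids with HUVEC endothelial cells and mesenchymal stem cells, treated with drug combinations. Concentrations descend in half-log steps from near clinical Cmax, or from 10 microM if Cmax unknown.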
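Further: spheroids exposed to compounds for one week before readout.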
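Wherever viability, T/C is given: 100% = DMSO vehicle control wells.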

SMILES: CCc1c2c(nc3ccc(O)cc13)-c1cc3c(c(=O)n1C2)COC(=O)[C@]3(O)CC + CN1CCN(c2cc(C(=O)Nc3cc4cc(-c5cnn(C)c5)ccc4cn3)ccn2)CC1
IC50 (curve of first compound, second compound 0.0316 µM): 7.83 nM
IC50 (curve of first compound, second compound 0.1 µM): 3.27 nM
IC50 (curve of first compound, second compound 0.316 µM): < 3.16 nM
IC50 (curve of first compound, second compound 1 µM): < 3.16 nM
IC50 (curve of first compound, second compound 3.16 µM): < 3.16 nM
IC50 (curve of first compound, second compound 10 µM): < 3.16 nM
viability, T/C (second compound 0.0316 µM, first compound 0.00316 µM): 98.9%
viability, T/C (second compound 0.0316 µM, first compound 0.01 µM): 32.5%
viability, T/C (second compound 0.0316 µM, first compound 0.0316 µM): 22.7%
viability, T/C (second compound 0.0316 µM, first compound 0.1 µM): 16.4%
viability, T/C (second compound 0.0316 µM, first compound 0.316 µM): 6.6%
viability, T/C (second compound 0.0316 µM, first compound 1 µM): 3.27%
viability, T/C (second compound 0.1 µM, first compound 0.00316 µM): 51%
viability, T/C (second compound 0.1 µM, first compound 0.01 µM): 29.2%
viability, T/C (second compound 0.1 µM, first compound 0.0316 µM): 19.8%
viability, T/C (second compound 0.1 µM, first compound 0.1 µM): 9.54%
viability, T/C (second compound 0.1 µM, first compound 0.316 µM): 3.86%
viability, T/C (second compound 0.1 µM, first compound 1 µM): 2.52%
viability, T/C (second compound 0.316 µM, first compound 0.00316 µM): 1.89%
viability, T/C (second compound 0.316 µM, first compound 0.01 µM): 2.41%
viability, T/C (second compound 0.316 µM, first compound 0.0316 µM): 1.16%
viability, T/C (second compound 0.316 µM, first compound 0.1 µM): 1.27%
viability, T/C (second compound 0.316 µM, first compound 0.316 µM): 0.15%
viability, T/C (second compound 0.316 µM, first compound 1 µM): 0.45%
viability, T/C (second compound 1 µM, first compound 0.00316 µM): 0.1%
viability, T/C (second compound 1 µM, first compound 0.01 µM): 0.11%
viability, T/C (second compound 1 µM, first compound 0.0316 µM): 0.12%
viability, T/C (second compound 1 µM, first compound 0.1 µM): 0.09%
viability, T/C (second compound 1 µM, first compound 0.316 µM): 1.68%
viability, T/C (second compound 1 µM, first compound 1 µM): 0.14%
viability, T/C (second compound 3.16 µM, first compound 0.00316 µM): 0.18%
viability, T/C (second compound 3.16 µM, first compound 0.01 µM): 0.26%
viability, T/C (second compound 3.16 µM, first compound 0.0316 µM): 0.41%
viability, T/C (second compound 3.16 µM, first compound 0.1 µM): 0.63%
viability, T/C (second compound 3.16 µM, first compound 0.316 µM): 0.68%
viability, T/C (second compound 3.16 µM, first compound 1 µM): 1.64%
viability, T/C (second compound 10 µM, first compound 0.00316 µM): 0.21%
viability, T/C (second compound 10 µM, first compound 0.01 µM): 0.3%
viability, T/C (second compound 10 µM, first compound 0.0316 µM): 0.79%
viability, T/C (second compound 10 µM, first compound 0.1 µM): 1.24%
viability, T/C (second compound 10 µM, first compound 0.316 µM): 1.43%
viability, T/C (second compound 10 µM, first compound 1 µM): 1.35%

IC50 (curve of compound): 7430 nM and 6370 nM
SMILES: CC1COCCN1c1cc(C2(S(C)(=N)=O)CC2)nc(-c2ccnc3[nH]ccc23)n1 (centres undefined)
viability, T/C (compound 0.0316 µM): 110% and 128%
viability, T/C (compound 0.1 µM): 92.4% and 100%
viability, T/C (compound 0.316 µM): 79.1% and 102%
viability, T/C (compound 1 µM): 111% and 108%
viability, T/C (compound 3.16 µM): 202%
outcome (compound 3.16 µM): inactive
viability, T/C (compound 10 µM): 26.1% and 28.4%

IC50 (curve of compound): 8.48 nM and 7.07 nM
SMILES: CCc1c2c(nc3ccc(O)cc13)-c1cc3c(c(=O)n1C2)COC(=O)[C@]3(O)CC
viability, T/C (compound 0.00316 µM): 120% and 84.1%
viability, T/C (compound 0.01 µM): 34.2% and 32%
viability, T/C (compound 0.0316 µM): 23.7% and 20.8%
viability, T/C (compound 0.1 µM): 18.7% and 19%
viability, T/C (compound 0.316 µM): 8.36% and 8.83%
viability, T/C (compound 1 µM): 3.07% and 3.43%

IC50 (curve of compound): 8140 nM and 8090 nM
SMILES: COC1C=CCC(C)C(C)S(=O)(=O)NC(=O)c2ccc3c(c2)N(CC2CCC21)CC1(CCCc2cc(Cl)ccc21)CO3 (centres undefined)
viability, T/C (compound 0.0316 µM): 99.1% and 84.9%
viability, T/C (compound 0.1 µM): 77.1% and 86.7%
viability, T/C (compound 0.316 µM): 101% and 100%
viability, T/C (compound 1 µM): 75.3% and 81.2%
viability, T/C (compound 3.16 µM): 94.4% and 83.8%
viability, T/C (compound 10 µM): 41.3% and 42.6%

Source: PubChem BioAssay AID2060605 (Molecular Pharmacology Branch, DTP, NCI, 2025)
